Data set [1] is described as follows: Size of peptide/DNA complexes by quasi-elastic light scattering. The format is physicochemical. The following applies: complexes (-/+) [1:4], 6 µg DNA, 500 µl. The method, then:
Sizes of complexes prepared with a plasmid DNA (PTG11033; see EP-A 890 32, 9.6 kb) and the C1qA (4-26) peptide (SEQ ID NO:1)see Table I) were evaluated. Complexes were formulated either in 5% glucose or in ultrafiltrated foetal calf serum (YM10 Amicon membrane). Formulation was made in 500 µl buffer, with 6 µg DNA and the quantity of peptide necessary to form a [1:4], [-:+] complex. As a control a polylysine SV40 NLS peptide was used. […] When oxidized, the dimerized C1qA peptide could form even smaller complexes, whatever the formulation buffer used. The reasonable sizes obtained in ultrafiltrated serum with C1qA peptides is an advantage for the use of this peptide rather than polylysine derivatives.
Complexes (-/+):[1:4], 6 µg DNA, 500 µl. Size measures: quasi-elastic light scattering, COULTER N4+.

Another data set deals with plasmid pTGl1033. The data set can be described thus: Gel retardation assay, agarose gel electrophoresis (Example 2). The format is binding. The procedure: (§1) Gel retardation assay was performed with C1qA (4-26) (SEQ ID NO:1) in several buffers: PBS, TBS, 5% glucose, or ultrafiltrated serum (YM10 Amicon membrane). DNA and peptides have been mixed at charge ratios [-/+] of [1:4], [1:1] and [1:0.2].

A further data set relates to plasmid pTG11236. The data set can be described thus: Gel retardation assay (Example 4). The format is binding. The method, then:
as §1
Gel retardation assay was performed with peptides SEQ ID NO: 1, SEQ ID NO: 2, SEQ ID NO: 3, SEQ ID NO: 7, SEQ ID NO: 8, SEQ ID NO: 9, SEQ ID NO: 10 , SEQ ID NO: 11, SEQ ID NO: 12, SEQ ID NO: 13, in various media : 5% glucose, 6% Elohes (Fresenius Kabi) and ultrafiltrated serum (YM10 Amicon membrane). Technical conditions are similar to Example 2. DNA and peptides have been mixed at 0.36, 1.44 and 1.8 nmoles of peptide per µg of DNA which correspond to the following charge ratios N/P: […]

Setting [2] is: 1.44 nmoles of peptide per µg of DNA.
Where [3] appears, read: 1.8 nmoles of peptide per µg of DNA.

Where no end group is shown, it is not given here.

“SEQ ID NO: 1: synthetic polypeptide consisting of SEQ ID NO:1, C1qA (4-26) of the C1q subunit of C1 complement factor (CRAPDGKKGEAGRPGRRGRPGLK; UniProt P02745 26-48, looked up, fragment)”: in data set [1], the “Sizes in 5% glucose” value is given as 1µm. Moreover, in data set [1], the “Sizes in ultrafiltrated serum” value is listed as 300-500 nm. Moreover, the “gel retardation of DNA” value in the data set on plasmid pTGl1033 (charge ratio [-/+] [1:1]) is given as “significative retardation”; with plasmid pTGl1033 (charge ratio [-/+] [1:4], PBS, TBS, 5% glucose or ultrafiltrated serum, 0.8% agarose, TBE), “strong association of DNA to the peptides”. The “retardation of the complexed plasmid DNA” value with plasmid pTG11236 (setting [2]) and with plasmid pTG11236 (setting [3]) was “complete retardation” each time.

Consider “SEQ ID NO: 3: C1qA (76-92) peptide (GIKGTKGSPGNIKDQPR; UniProt P02745 98-114, looked up, fragment)”, for which the “retardation of the complexed plasmid DNA” value in the data set on plasmid pTG11236 (setting [2]) and in the data set on plasmid pTG11236 (setting [3]) was “complete retardation” each time.

As to “SP-1052 oxidized: oxidized, dimerized C1qA (4-26) peptide (CRAPDGKKGEAGRPGRRGRPGLK; also: oxidized disulfide-linked dimer; UniProt P02745 26-48, looked up, fragment)”, in data set [1], the “Sizes in 5% glucose” value is 200 nm and the “Sizes in ultrafiltrated serum” value came out at 300 nm.

Source of the values: EP1052287A2, “Complex for transferring an anionic substance of interest into a cell” (TRANSGENE S.A., priority 1999, dated 2000).
